Assay results reported in patent US5439939A, “Pharmaceutical compositions and methods using isobutyramide for treating betaglobin disorders” (Children's Hospital Medical Center of Northern California, priority 1992, dated 1995).

What was measured:
[1] = Plasma levels of isobutyramide after administration; type: in vivo, baboon and human
Protocol: Adult, male baboons (Papio anubis) were used as experimental animals. Three baboons were rendered anemic by daily phlebotomy for at least about 30 days, and maintained at hematocrit values of about 22% by daily phlebotomy. Each anemic baboon was treated with isobutyramide. One baboon (no. 767) received isobutyramide by oral formulation of 150 mg isobutyramide per ml of distilled sterile water administered through a naso-gastric tube three times per week for three weeks. This baboon received isobutyramide at a dosage of 600 mg per kg of body weight. Another baboon (no. 224) received isobutyramide by parenteral formulation of 150 mg isobutyramide per ml of distilled sterile water administered by intravenous infusion over a 30 minute period one time per day for three weeks. This baboon received isobutyramide at a dosage of 500 mg per kg of body weight. […]
Isobutyramide was administered orally to the baboon (no.767) and parenterally to another baboon (no.224) as described in Example 3. The plasma concentrations of the isobutyramide at various times after a single oral dose to those baboons are shown in FIG. 1 (measured by gas liquid chromatography and expressed in millimoles per liter ("mM")). […]

[2] = standard assays; cited from earlier work
[3] = system: reticulocytes containing gammaglobin (F-retics); test: Effect of isobutyramide on percentage of F-retics to total reticulocytes in anemic baboons in vivo; parameters: species or system baboon (Papio anubis)
Protocol: (§1) Adult, male baboons (Papio anubis) were used as experimental animals. Three baboons were rendered anemic by daily phlebotomy for at least about 30 days, and maintained at hematocrit values of about 22% by daily phlebotomy. Each anemic baboon was treated with isobutyramide. One baboon (no. 767) received isobutyramide by oral formulation of 150 mg isobutyramide per ml of distilled sterile water administered through a naso-gastric tube three times per week for three weeks. This baboon received isobutyramide at a dosage of 600 mg per kg of body weight. Another baboon (no. 224) received isobutyramide by parenteral formulation of 150 mg isobutyramide per ml of distilled sterile water administered by intravenous infusion over a 30 minute period one time per day for three weeks. This baboon received isobutyramide at a dosage of 500 mg per kg of body weight. Another baboon (no. 207) received isobutyramide by parenteral formulation of 150 mg isobutyramide per ml of distilled sterile water administered by intravenous infusion over a 30 minute period one time per day for three days. This baboon received isobutyramide at a dosage of 500 mg per kg of body weight. The experiment was terminated with this baboon after three days due to an infection. Blood samples were taken throughout the course of treatment. Samples were assayed to determine the percentage of gammaglobin to total gamma-globin and betaglobin (Table 1) and the percentage of total reticulocytes containing gammaglobin, sometimes called "F-retics" (Table 2). The assay to measure the percentage of gammaglobin to total gamma-globin and betaglobin was by the method described in Perrine, S. P., et al., Delay In The Fetal Globin Switch In Infants Of Diabetic Mothers, New Eng. J. Med. vol.312, pp.334-338 (1985). The assay to measure the percentage of total reticulocytes containing gammaglobin was performed by the method described in Rogers, G., et al., Hematologic Response of Patients with Sickle Cell Disease To Treatment with Hydroxyurea, New Eng. J. Med., vol.322, pp.1037-1045 (1990).

[4] = system: erythroid progenitors from peripheral blood; test: Effect of isobutyramide in vitro on percentage of gammaglobin to total gamma plus betaglobin in cultured erythroid progenitors; type: cell-based, human; conditions: 0.2 mM, about 14 days
Protocol: Cultures of erythroid progenitors from peripheral blood of patients having a betaglobin disorder and normal subjects were cultured for about 14 days in presence of 0.2 millimoles per liter ("mM") isobutyramide and the percentages of gammaglobin to total gamma plus betaglobin were assayed substantially according to the methods described in Perrine, S. P. et al., Sodium Butyrate Enhances Fetal Globin Gene Expression in Erythroid Progenitors of Patients With Hb SS and Beta Thalassemia, Blood, vol.74, pp.454-459 (1989). The patients with sickle-cell anemia are identified as "SS" and with beta-thalassemia as "beta-thal." Ages are specified in years.

gammaglobin = test: Effect of isobutyramide on percentage of gammaglobin to total gamma plus betaglobin in anemic baboons in vivo; parameters: species or system baboon (Papio anubis)
Protocol: as §1

[5] = species not given; cited from earlier work
[6] = administered in therapeutically effective amounts; cited from earlier work

Compound: CC(C)C(N)=O [isobutyramide, Isobutyramide]
- plasma levels ([1]; oral and parenteral administration): sufficient to yield therapeutic effects
- half-life ([1]; plasma, after oral or parenteral administration, species not specified (baboons and humans)): 456 to 630 min
- mutagenicity [2]: not mutagenic
- Percentage of F-retics to total reticulocytes, treatment ([3]; baboon 207, 500 mg per kg i.v. infusion over 30 min, once per day for three days, pre-treatment 3): 15%
- Percentage of F-retics to total reticulocytes, treatment ([3]; baboon 224, 500 mg per kg i.v. infusion over 30 min, once per day for three weeks, pre-treatment 16): 27%
- Percentage of F-retics to total reticulocytes, treatment ([3]; baboon 767, 600 mg per kg oral (naso-gastric tube), three times per week for three weeks, pre-treatment 13): 17%
- production of fetal hemoglobin in culture ([4]; Table 3): significantly stimulated the production of fetal hemoglobin in culture
- Percentage of gammaglobin to total gamma plus betaglobin, treatment ([4]; SS (sickle-cell anemia), age 10-11, pre-treatment 22): 40%
- Percentage of gammaglobin to total gamma plus betaglobin, treatment ([4]; SS (sickle-cell anemia), pre-treatment 17): 96%
- Percentage of gammaglobin to total gamma plus betaglobin, treatment ([4]; SS (sickle-cell anemia), pre-treatment 42): 55%
- Percentage of gammaglobin to total gamma plus betaglobin, treatment ([4]; SS (sickle-cell anemia), pre-treatment 70): 78%
- Percentage of gammaglobin to total gamma plus betaglobin, treatment ([4]; beta-thal, newborn, pre-treatment 40): 50%
- Percentage of gammaglobin to total gamma plus betaglobin, treatment ([4]; beta-thal, pre-treatment 65): 98%
- Percentage of gammaglobin to total gamma plus betaglobin, treatment ([4]; beta-thal, pre-treatment 70): 64%
- Percentage of gammaglobin to total gamma plus betaglobin, treatment ([4]; normal, newborn, pre-treatment 5): 45%
- Percentage of gammaglobin to total gamma plus betaglobin, treatment ([4]; normal, newborn, pre-treatment 20): 26%
- Percentage of gammaglobin to total gamma plus betaglobin, treatment ([4]; normal, newborn, pre-treatment 69): 72%
- production of fetal hemoglobin in vivo (gammaglobin; anemic baboons, Tables 1 and 2): significantly stimulated the production of fetal hemoglobin
- Percentage of gammaglobin to total gamma plus betaglobin, treatment (highest achieved) (gammaglobin; baboon 207, 500 mg per kg i.v. infusion over 30 min, once per day for three days, pre-treatment 0): 9%
- Percentage of gammaglobin to total gamma plus betaglobin, treatment (highest achieved) (gammaglobin; baboon 224, 500 mg per kg i.v. infusion over 30 min, once per day for three weeks, pre-treatment 2): 11%
- Percentage of gammaglobin to total gamma plus betaglobin, treatment (highest achieved) (gammaglobin; baboon 767, 600 mg per kg oral (naso-gastric tube), three times per week for three weeks, pre-treatment 3): 12%
- acute intravenous LD 50 [5]: about 3 g per kilogram
- toxicity [6]: substantially non-toxic
